According to patent publication US20260193293A1, “PEPTIDES CAPABLE OF INHIBITING PROTEIN-PROTEIN INTERACTIONS AT GABAB1A SUBUNIT AND USES THEREOF” (UNIVERSITY OF COPENHAGEN, priority 2022, published 2026):
Read-outs that look alike come from different tables or passages of the source. Values belong to the compound of their own block, whether it stands above or below them. Non-standard residues stand in square brackets, D forms with d. Residues, ends and D or L forms follow the SMILES beside them. NMeS = CN[C@@H](CO)C(=O)O; NMeA = CN[C@@H](C)C(=O)O

Target: Sushi domains (SD1/2) protein
Test: Fluorescence polarization (FP) competition assay with AJAP-1probe, calculated Ki
Type: binding
Conditions: read-out: Ki (nM) mean ± SEM
Procedure, shortened: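 Ki values were derived from IC50s (sigmoidal fits, ≥ triplicate), with probe Kd obtained by saturation titration of SD1/2. Peptides displaced a 25 nM TAMRA-labelled probe; polarization read at 530/580 nm in 1% BSA-containing PBS, pH 7.4, room temperature.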

[1] = Table 11, deep mutational scanning validation variants of AJAP-1WT
[2] = Table 6, elongation and truncation scan of PIANP binding epitope
[3] = Table 12, deep mutational scanning validation variants of PIANPWT
[4] = Table 7, Ala-, D-amino acids and N-methylation scans of APPWT

Structure (SMILES): CC[C@H](C)[C@H](NC(=O)[C@H](Cc1ccccc1)NC(=O)[C@H](Cc1c[nH]c2ccccc12)NC(=O)[C@@H]1CCCN1C(C)=O)C(=O)N[C@H](C(=O)N[C@@H](Cc1c[nH]c2ccccc12)C(=O)NCC(=O)N1CCC[C@H]1C(=O)N[C@H](C(=O)N[C@H](C(=O)N[C@@H](CO)C(=O)N[C@@H](CCCNC(=N)N)C(=O)N[C@@H](CCC(=O)O)C(=O)N[C@@H](CC(=O)O)C(N)=O)C(C)C)[C@@H](C)O)C(C)C [PWFIVWGPTVSRED] (Ac-PWFIVWGPTVSRED-NH2)
- Ki [3]: 461 ± 10 nM

Structure (SMILES): CC[C@H](C)[C@H](NC(=O)[C@H](C)NC(=O)[C@H](Cc1c[nH]cn1)NC(=O)[C@@H]1CCCN1C(C)=O)C(=O)N[C@H](C(=O)N[C@@H](Cc1c[nH]c2ccccc12)C(=O)NCC(=O)N1CCC[C@H]1C(=O)N[C@H](C(=O)N[C@H](C(=O)N[C@@H](CO)C(=O)N[C@@H](CCCNC(=N)N)C(=O)N[C@@H](CCC(=O)O)C(=O)N[C@@H](CC(=O)O)C(N)=O)C(C)C)[C@@H](C)O)C(C)C [PHAIVWGPTVSRED] (Ac-PHAIVWGPTVSRED-NH2)
- Ki [3]: 1500 ± 50 nM

Structure (SMILES): CC(=O)N[C@@H](CCC(=O)O)C(=O)N[C@@H](CC(=O)O)C(=O)N[C@@H](CC(=O)O)C(=O)N(C)[C@@H](CO)C(=O)N[C@@H](CC(=O)O)C(=O)N[C@H](C(=O)N[C@@H](Cc1c[nH]c2ccccc12)C(=O)N[C@@H](Cc1c[nH]c2ccccc12)C(=O)NCC(=O)NCC(=O)N[C@@H](C)C(=O)N[C@@H](CC(=O)O)C(=O)N[C@H](C(=O)N[C@@H](CC(=O)O)C(N)=O)[C@@H](C)O)C(C)C (Ac-EDD[NMeS]DVWWGGADTD-NH2)
- Ki [4]: 1670 ± 32 nM

Structure (SMILES): CC[C@H](C)[C@H](NC(=O)[C@H](Cc1c[nH]c2ccccc12)NC(=O)[C@H](CC(=O)O)NC(=O)[C@H](CC(=O)O)NC(=O)[C@H](CC(=O)O)NC(=O)[C@H](CCC(=O)O)NC(=O)[C@H](CCCNC(=N)N)NC(=O)[C@H](CCCNC(=N)N)NC(=O)[C@H](CCCNC(=N)N)NC(=O)[C@H](CCCNC(=N)N)NC(=O)[C@H](CCCNC(=N)N)NC(=O)[C@H](CCCNC(=N)N)NC(C)=O)C(=O)N[C@@H](CC(=O)O)C(=O)N[C@@H](Cc1c[nH]c2ccccc12)C(=O)N[C@@H](Cc1ccc(O)cc1)C(=O)N[C@@H](CC(=O)O)C(=O)N[C@@H](CO)C(=O)N[C@@H](CC(=O)O)C(=O)N[C@@H](CC(=O)O)C(=O)N[C@@H](CC(=O)O)C(N)=O (Ac-RRRRRREDDDWIDWYDSDDD-NH2)
- Ki (Table 14, CPPs tagged peptides): 70.9 ± 1 nM

Structure (SMILES): CC(=O)N[C@@H](CCC(=O)O)C(=O)N[C@@H](CC(=O)O)C(=O)N[C@@H](CC(=O)O)C(=O)N[C@@H](CO)C(=O)N[C@@H](CC(=O)O)C(=O)N[C@H](C(=O)N[C@@H](Cc1c[nH]c2ccccc12)C(=O)N[C@@H](Cc1c[nH]c2ccccc12)C(=O)NCC(=O)NCC(=O)N(C)[C@@H](C)C(=O)N[C@@H](CC(=O)O)C(=O)N[C@H](C(=O)N[C@@H](CC(=O)O)C(N)=O)[C@@H](C)O)C(C)C (Ac-EDDSDVWWGG[NMeA]DTD-NH2)
- Ki [4]: 704 ± 11 nM

Structure (SMILES): CC(=O)N[C@@H](CCC(=O)O)C(=O)N[C@@H](CC(=O)O)C(=O)N[C@@H](CC(=O)O)C(=O)N[C@@H](CO)C(=O)N[C@@H](CC(=O)O)C(=O)N[C@H](C(=O)N[C@@H](Cc1c[nH]c2ccccc12)C(=O)N[C@@H](Cc1c[nH]c2ccccc12)C(=O)NCC(=O)NCC(=O)N[C@@H](C)C(=O)N[C@@H](CC(=O)O)C(=O)N[C@@H](Cc1c[nH]cn1)C(=O)N[C@@H](CC(=O)O)C(N)=O)C(C)C (Ac-EDDSDVWWGGADHD-NH2)
- Ki (Table 10, deep mutational scanning validation variants of APPWT): 739 ± 9 nM

Structure (SMILES): CC[C@H](C)[C@H](NC(=O)[C@H](C)NC(=O)[C@H](Cc1c[nH]c2ccccc12)NC(=O)[C@@H]1CCCN1C(C)=O)C(=O)N[C@H](C(=O)N[C@@H](Cc1c[nH]c2ccccc12)C(=O)NCC(=O)N1CCC[C@H]1C(=O)N[C@H](C(=O)N[C@H](C(=O)N[C@@H](CO)C(=O)N[C@@H](CCCNC(=N)N)C(=O)N[C@@H](CCC(=O)O)C(=O)N[C@@H](CC(=O)O)C(=O)NCC(=O)NCC(N)=O)C(C)C)[C@@H](C)O)C(C)C (Ac-PWAIVWGPTVSREDGG-NH2)
- Ki [2]: 561 ± 21 nM

Structure (SMILES): CC[C@H](C)[C@H](NC(=O)[C@H](C)NC(=O)[C@H](Cc1c[nH]c2ccccc12)NC(=O)[C@@H]1CCCN1C(C)=O)C(=O)N[C@H](C(=O)N[C@@H](Cc1c[nH]c2ccccc12)C(=O)NCC(=O)N1CCC[C@H]1C(=O)N[C@H](C(=O)N[C@H](C(=O)N[C@@H](CO)C(=O)N[C@@H](CCCNC(=N)N)C(=O)N[C@@H](C)C(=O)N[C@@H](CC(=O)O)C(N)=O)C(C)C)[C@@H](C)O)C(C)C (Ac-PWAIVWGPTVSRAD-NH2)
- Ki (Table 9, Ala-, D-amino acids and N-methylation scans of PIANPWT): 600 ± 22 nM

Further lines, results first:

- Ki [1]: 67 ± 1 nM
Structure (SMILES): CC[C@H](C)[C@H](NC(=O)[C@H](Cc1ccccc1)NC(=O)[C@H](CCC(=O)O)NC(=O)[C@@H](NC(=O)[C@@H](NC(C)=O)C(C)C)[C@@H](C)O)C(=O)N[C@@H](C)C(=O)N[C@@H](Cc1c[nH]c2ccccc12)C(=O)NCC(=O)N1CCC[C@H]1C(=O)N[C@H](C(=O)NCC(=O)N[C@@H](CC(=O)O)C(=O)N[C@@H](CCC(=O)O)C(=O)N[C@@H](CC(=O)O)C(N)=O)[C@@H](C)O [VTEFIAWGPTGDED]

- Ki [1]: 199 ± 10 nM
- Ki (Table 13, peptides for affinity maturation): 199 ± 10 nM
Structure (SMILES): CC[C@H](C)[C@H](NC(=O)[C@H](Cc1ccccc1)NC(=O)[C@H](CCC(=O)O)NC(=O)[C@@H](NC(=O)[C@H](CCC(=O)O)NC(C)=O)[C@@H](C)O)C(=O)N[C@@H](C)C(=O)N[C@@H](Cc1c[nH]c2ccccc12)C(=O)N[C@@H](Cc1ccc(O)cc1)C(=O)N1CCC[C@H]1C(=O)N[C@H](C(=O)NCC(=O)N[C@@H](CC(=O)O)C(=O)N[C@@H](CCC(=O)O)C(=O)N[C@@H](CC(=O)O)C(N)=O)[C@@H](C)O [ETEFIAWYPTGDED] (Ac-ETEFIAWYPTGDED-NH2)

- Ki [2]: 5550 ± 11 nM
Structure (SMILES): CC[C@H](C)[C@H](NC(=O)[C@H](C)NC(C)=O)C(=O)N[C@H](C(=O)N[C@@H](Cc1c[nH]c2ccccc12)C(=O)NCC(=O)N1CCC[C@H]1C(=O)N[C@H](C(=O)N[C@H](C(=O)N[C@@H](CO)C(=O)N[C@@H](CCCNC(=N)N)C(=O)N[C@@H](CCC(=O)O)C(=O)N[C@@H](CC(=O)O)C(=O)NCC(N)=O)C(C)C)[C@@H](C)O)C(C)C (Ac-AIVWGPTVSREDG-NH2)

- Ki [1]: 41 ± 2 nM
Structure (SMILES): CC[C@H](C)[C@H](NC(=O)[C@H](Cc1ccccc1)NC(=O)[C@H](CCC(=O)O)NC(=O)[C@@H](NC(=O)[C@H](CCC(=O)O)NC(C)=O)[C@@H](C)O)C(=O)N[C@@H](C)C(=O)N[C@@H](Cc1c[nH]c2ccccc12)C(=O)NCC(=O)N1CCC[C@H]1C(=O)N[C@H](C(=O)NCC(=O)N[C@@H](CC(=O)O)C(=O)N[C@@H](Cc1ccccc1)C(=O)N[C@@H](CC(=O)O)C(N)=O)[C@@H](C)O (Ac-ETEFIAWGPTGDFD-NH2)

- Ki (Table 8, Ala-, D-amino acids and N-methylation scans of AJAP-1WT): 49 ± 2 nM
Structure (SMILES): CC[C@H](C)[C@H](NC(=O)[C@H](Cc1ccccc1)NC(=O)[C@H](C)NC(=O)[C@@H](NC(=O)[C@H](CCC(=O)O)NC(C)=O)[C@@H](C)O)C(=O)N[C@@H](C)C(=O)N[C@@H](Cc1c[nH]c2ccccc12)C(=O)NCC(=O)N1CCC[C@H]1C(=O)N[C@H](C(=O)NCC(=O)N[C@@H](CC(=O)O)C(=O)N[C@@H](CCC(=O)O)C(=O)N[C@@H](CC(=O)O)C(N)=O)[C@@H](C)O [ETAFIAWGPTGDED] (Ac-ETAFIAWGPTGDED-NH2)

- Ki [1]: 39 ± 1 nM
Structure (SMILES): CC[C@H](C)[C@H](NC(=O)[C@H](Cc1ccccc1)NC(=O)[C@H](CCC(=O)O)NC(=O)[C@@H](NC(=O)[C@H](CCC(=O)O)NC(C)=O)[C@@H](C)O)C(=O)N[C@@H](C)C(=O)N[C@@H](Cc1c[nH]c2ccccc12)C(=O)NCC(=O)N1CCC[C@H]1C(=O)N[C@H](C(=O)NCC(=O)N[C@@H](CC(=O)O)C(=O)N[C@@H](CCC(=O)O)C(=O)N[C@@H](Cc1ccc(O)cc1)C(N)=O)[C@@H](C)O

- Ki (Table 5, elongation and truncation scan of AJAP-1 binding epitope): 248 ± 7 nM
Structure (SMILES): CC[C@H](C)[C@H](NC(=O)[C@H](Cc1ccccc1)NC(=O)[C@H](CCC(=O)O)NC(=O)[C@@H](NC(=O)[C@H](CCC(=O)O)NC(=O)[C@@H](NC(C)=O)[C@@H](C)O)[C@@H](C)O)C(=O)N[C@@H](C)C(=O)N[C@@H](Cc1c[nH]c2ccccc12)C(=O)NCC(=O)N1CCC[C@H]1C(=O)N[C@H](C(=O)NCC(N)=O)[C@@H](C)O (Ac-TETEFIAWGPTG-NH2)

- Ki [1]: 22 ± 1 nM
Structure (SMILES): CC[C@H](C)[C@H](NC(=O)[C@H](Cc1ccccc1)NC(=O)[C@H](CCC(=O)O)NC(=O)[C@@H](NC(=O)[C@H](CCC(=O)O)NC(C)=O)[C@@H](C)CC)C(=O)N[C@@H](C)C(=O)N[C@@H](Cc1c[nH]c2ccccc12)C(=O)NCC(=O)N1CCC[C@H]1C(=O)N[C@H](C(=O)NCC(=O)N[C@@H](CC(=O)O)C(=O)N[C@@H](CCC(=O)O)C(=O)N[C@@H](CC(=O)O)C(N)=O)[C@@H](C)O [EIEFIAWGPTGDED]

- Ki [1]: 34 ± 2 nM
Structure (SMILES): CC[C@H](C)[C@H](NC(=O)[C@H](Cc1ccccc1)NC(=O)[C@H](CCC(=O)O)NC(=O)[C@@H](NC(=O)[C@H](CCC(=O)O)NC(C)=O)[C@@H](C)O)C(=O)N[C@@H](C)C(=O)N[C@@H](Cc1c[nH]c2ccccc12)C(=O)NCC(=O)N1CCC[C@H]1C(=O)N[C@H](C(=O)NCC(=O)N[C@@H](CC(=O)O)C(=O)N1CCC[C@H]1C(=O)N[C@@H](CC(=O)O)C(N)=O)[C@@H](C)O (Ac-ETEFIAWGPTGDPD-NH2)

- Ki [1]: 38 ± 1 nM
Structure (SMILES): CC[C@H](C)[C@H](NC(=O)[C@H](Cc1ccccc1)NC(=O)[C@H](CCC(=O)O)NC(=O)[C@@H](NC(=O)[C@H](CCC(=O)O)NC(C)=O)[C@@H](C)O)C(=O)N[C@@H](C)C(=O)N[C@@H](Cc1c[nH]c2ccccc12)C(=O)NCC(=O)N1CCC[C@H]1C(=O)N[C@@H](Cc1c[nH]cn1)C(=O)NCC(=O)N[C@@H](CC(=O)O)C(=O)N[C@@H](CCC(=O)O)C(=O)N[C@@H](CC(=O)O)C(N)=O [ETEFIAWGPHGDED] (Ac-ETEFIAWGPHGDED-NH2)
